Experimental data reported in ChEMBL document CHEMBL1159289, “Enzyme inhibitors: new and known polybrominated phenols and diphenyl ethers from four Indo-Pacific Dysidea sponges” (J Nat Prod, 1995).
Calls of active or inactive are those of the source. The calls are words filed in the database; no cut-off is given here.

Assays:
[1] = Inhibition of tyrosine-protein kinase pp60v-src
[2] = biological target: T1, Polyunsaturated fatty acid lipoxygenase ALOX15 (Homo sapiens) (UniProt P16050); test: Inhibition of 15-lipoxygenase at 40 ug/ml; settings: at 40 µg/mL
T1 sequence (whole entry): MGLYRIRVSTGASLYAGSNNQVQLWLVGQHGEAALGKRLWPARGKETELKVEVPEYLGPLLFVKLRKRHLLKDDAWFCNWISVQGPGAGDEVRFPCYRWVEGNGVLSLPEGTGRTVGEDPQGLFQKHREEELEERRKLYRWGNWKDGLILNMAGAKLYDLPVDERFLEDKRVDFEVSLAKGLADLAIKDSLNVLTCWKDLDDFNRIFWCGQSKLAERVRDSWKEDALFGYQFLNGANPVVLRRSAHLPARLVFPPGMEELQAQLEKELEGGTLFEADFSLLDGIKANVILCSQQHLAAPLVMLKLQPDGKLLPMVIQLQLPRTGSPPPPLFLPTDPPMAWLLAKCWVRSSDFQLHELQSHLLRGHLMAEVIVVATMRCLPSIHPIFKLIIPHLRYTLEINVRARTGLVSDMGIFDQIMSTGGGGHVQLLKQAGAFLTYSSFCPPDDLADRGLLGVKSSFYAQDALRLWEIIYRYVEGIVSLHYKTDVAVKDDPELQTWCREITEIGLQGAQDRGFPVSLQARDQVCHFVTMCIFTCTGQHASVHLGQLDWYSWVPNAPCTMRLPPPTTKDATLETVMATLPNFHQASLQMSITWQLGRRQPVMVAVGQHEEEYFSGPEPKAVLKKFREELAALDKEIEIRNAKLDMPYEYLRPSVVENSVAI

[3] = Inhibition of matrix metalloprotease
[4] = biological target: GMP synthase [glutamine-hydrolyzing] (Homo sapiens) (UniProt P49915); test: Inhibition of GMPS in human A3.01 cells at 50 uM; type: cell-based
[5] = biological target: T2, Polyunsaturated fatty acid lipoxygenase ALOX15 (Homo sapiens, UniProt P16050); test: Inhibition of 15-lipoxygenase
T2 sequence (P16050 whole entry): T1 sequence (whole entry)

[6] = Inhibition of inosine monophosphate dehydrogenase; design: unit not given here
[7] = Inhibition of PKC

Sequence of GMP synthase [glutamine-hydrolyzing] (Homo sapiens) (P49915 whole entry): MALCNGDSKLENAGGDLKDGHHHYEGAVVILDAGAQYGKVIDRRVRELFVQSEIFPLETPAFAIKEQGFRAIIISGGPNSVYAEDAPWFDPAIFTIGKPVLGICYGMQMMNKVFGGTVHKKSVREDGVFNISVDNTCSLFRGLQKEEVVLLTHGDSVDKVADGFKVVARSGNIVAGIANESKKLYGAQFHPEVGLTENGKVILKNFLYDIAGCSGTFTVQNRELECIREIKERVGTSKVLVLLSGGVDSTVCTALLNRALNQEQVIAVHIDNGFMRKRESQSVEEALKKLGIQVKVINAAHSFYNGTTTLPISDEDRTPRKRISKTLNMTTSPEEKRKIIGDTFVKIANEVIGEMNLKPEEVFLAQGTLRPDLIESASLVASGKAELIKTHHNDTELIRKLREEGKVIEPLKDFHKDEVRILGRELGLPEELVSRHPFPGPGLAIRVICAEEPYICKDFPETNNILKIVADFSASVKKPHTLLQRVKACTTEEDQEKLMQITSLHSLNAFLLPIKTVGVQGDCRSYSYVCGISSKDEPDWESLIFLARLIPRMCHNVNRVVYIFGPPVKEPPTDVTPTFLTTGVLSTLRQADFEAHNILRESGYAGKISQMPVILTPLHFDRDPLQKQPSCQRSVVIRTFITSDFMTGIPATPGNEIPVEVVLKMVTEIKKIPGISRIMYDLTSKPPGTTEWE

Row | SMILES | Activity [1] | inhibition [2] | Activity [3] | inhibition [4] | IC50 [5] | EC50 [6] | Activity [7]
1 | COc1cc(Br)cc(Br)c1Oc1cc(Br)cc(Br)c1O | inactive | – | – | – | – | – | –
2 | Oc1cc(Br)cc(Br)c1Oc1c(O)cc(Br)c(Br)c1Br | – | 100% | – | – | – | – | –
3 | Oc1cc(Br)c(Br)c(Br)c1Oc1cc(Br)cc(Br)c1O | inactive | – | inactive | 89% | – | – | –
4 | Oc1c(Br)cc(Br)cc1Oc1c(Br)cc(Br)c(Br)c1O | inactive | – | inactive | 70% | 2.5 µM | 7.8 | –
5 | Oc1c(Oc2ccc(Br)cc2Br)cc(Br)c(Br)c1Br | inactive | – | inactive | 71% | 7.4 µM | 4.4 | –
6 | Oc1c(Br)cc(Br)cc1Oc1ccc(Br)cc1Br | inactive | – | – | – | – | – | –
7 | Oc1cc(Br)cc(Br)c1Oc1ccc(Br)cc1Br | inactive | – | inactive | 56% | – | 5.71 | –
8 | Oc1cc(Br)c(Br)c(Br)c1Oc1ccc(Br)cc1Br | inactive | – | inactive | 99% | 7.4 µM | 4 | –
9 | Oc1c(Br)cc(Br)cc1Oc1c(O)c(Br)c(Br)c(Br)c1Br | inactive | – | inactive | 96% | 1.3 µM | 2.79 | inactive
10 | COc1c(Br)cc(Br)cc1Oc1c(O)cc(Br)cc1Br | inactive | – | – | – | – | – | –
